Results published in PubChem BioAssay AID588616 (The Scripps Research Institute Molecular Screening Center, 2011).

Key:
[1] = system: DLD-1 cells, phospho-p38 western blot, 24 h; test: phosphorylated p38 MAPK abundance shift – DLD1 cells, chemiluminescent western blot, powder samples, counter-screen for KLF5 inhibitor project, late-stage follow-up (AID 588616); conditions: measured here: phospho-p38 band fold change vs DMSO; at 10 µM; stronger effect = lower value
[2] = target: Mitogen-activated protein kinase 14 (Homo sapiens) (UniProt Q16539); test: as above; conditions: DLD-1 cells, phospho-p38 western blot, 24 h; at 10 µM; stronger effect = higher value
Chain of Mitogen-activated protein kinase 14 (Homo sapiens) (Q16539 whole entry, looked up): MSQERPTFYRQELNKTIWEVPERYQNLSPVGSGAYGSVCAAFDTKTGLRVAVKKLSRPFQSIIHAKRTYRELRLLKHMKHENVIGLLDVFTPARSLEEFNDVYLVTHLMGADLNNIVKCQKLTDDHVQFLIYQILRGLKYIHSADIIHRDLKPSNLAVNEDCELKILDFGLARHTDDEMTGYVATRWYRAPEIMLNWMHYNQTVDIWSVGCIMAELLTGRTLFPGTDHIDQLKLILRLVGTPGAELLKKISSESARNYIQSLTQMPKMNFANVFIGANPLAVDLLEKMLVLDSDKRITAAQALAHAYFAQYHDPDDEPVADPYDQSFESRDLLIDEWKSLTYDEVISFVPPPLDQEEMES

Row | inhibition [2] [%] | SMILES | fold change [1]
1 | -114 | CN(C(=O)CNC(=O)/C=C/c1cccc(Cl)c1)C1CCS(=O)(=O)C1 (stereo unspecified) | 2.14
2 | -197 | CN(C(=O)COC(=O)/C=C/c1cccc([N+](=O)[O-])c1)C1CCS(=O)(=O)C1 (stereo unspecified) | 2.97
3 | -144 | CN(C(=O)CNC(=O)/C=C/c1cccc(Cl)c1)C1CCS(=O)(=O)CC1 | 2.44
